Source: patent US11622970B2, “BCL-2 inhibitors and their use as pharmaceuticals” (PRELUDE THERAPEUTICS INCORPORATED, priority 2020, dated 2023)

The compounds below were run against BCL-2 recombinant protein (Homo sapiens, UniProt P10415) (assay: Cell free Bcl-2:Bak affinity assay (Bcl-2 Bak), HTRF competition of FAM-Bak peptide). Conditions: 10-concentration IC50 mode, 4 nM BCL-2 recombinant protein, 100 nM FAM-Bak, read-out: potency (IC50).
BCL-2 recombinant protein, sequence (P10415 whole entry): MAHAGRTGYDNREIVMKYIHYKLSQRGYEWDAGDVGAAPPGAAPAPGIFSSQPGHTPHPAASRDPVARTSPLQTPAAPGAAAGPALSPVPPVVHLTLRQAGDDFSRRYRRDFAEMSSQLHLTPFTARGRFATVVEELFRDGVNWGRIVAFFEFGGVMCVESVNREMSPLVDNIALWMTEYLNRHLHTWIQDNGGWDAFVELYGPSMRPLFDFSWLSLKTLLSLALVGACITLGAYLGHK
Format: binding
Outline: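 Compounds in 10-point 3-fold dilution preincubated 10 min at RT with 4 nM GST-BCL-2 (20 mM K phosphate pH 7.5, 50 mM NaCl, 1 mM EDTA, 0.005% Triton X-100), then 100 nM FAM-Bak 10 min, anti-GST-Tb added, 60 min RT dark. HTRF read; % inhibition vs DMSO and positive control, IC50 from curve fit.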
`Cc1cn(C)nc1C(=O)NS(=O)(=O)c1ccc(N2CCN(CC3=C(c4ccc(Cl)cc4)CC(C)(C)CC3)CC2)cc1Oc1cnc2[nH]ccc2c1` [Example 76, N-[4-[4-[[2-(4-chlorophenyl)-4,4-dimethylcyclohexen-1-yl]methyl]piperazin-1-yl]-2-(1H-pyrrolo[2,3-b]pyridin-5-yloxy)phenyl]sulfonyl-1,4-dimethylpyrazole-3-carboxamide] showed an IC50 of 10 to 100 nM.
For `Cc1cc(C(=O)NS(=O)(=O)c2ccc(N3CCN(CC4=C(c5ccc(Cl)cc5)CC(C)(C)CC4)CC3)cc2Oc2cnc3[nH]ccc3c2)nn1C` [Example 77, N-[4-[4-[[2-(4-chlorophenyl)-4,4-dimethylcyclohexen-1-yl]methyl]piperazin-1-yl]-2-(1H-pyrrolo[2,3-b]pyridin-5-yloxy)phenyl]sulfonyl-1,5-dimethylpyrazole-3-carboxamide], the IC50 was 100 to 1000 nM.
`Cc1nn(C)c(C(=O)NS(=O)(=O)c2ccc(N3CCN(CC4=C(c5ccc(Cl)cc5)CC(C)(C)CC4)CC3)cc2Oc2cnc3[nH]ccc3c2)c1C` [Example 78, N-[4-[4-[[2-(4-chlorophenyl)-4,4-dimethylcyclohexen-1-yl]methyl]piperazin-1-yl]-2-(1H-pyrrolo[2,3-b]pyridin-5-yloxy)phenyl]sulfonyl-2,4,5-trimethylpyrazole-3-carboxamide] gave an IC50 of 100 to 1000 nM.
`Cc1cc(C(=O)NS(=O)(=O)c2ccc(N3CCN(CC4=C(c5ccc(Cl)cc5)CC(C)(C)CC4)CC3)cc2Oc2cnc3[nH]ccc3c2)cc([N+](=O)[O-])c1` [Example 79, N-[4-[4-[[2-(4-chlorophenyl)-4,4-dimethylcyclohexen-1-yl]methyl]piperazin-1-yl]-2-(1H-pyrrolo[2,3-b]pyridin-5-yloxy)phenyl]sulfonyl-3-methyl-5-nitrobenzamide] was tested, and the IC50 was 10 to 100 nM.
`Cc1c(Cl)c(C(=O)NS(=O)(=O)c2ccc(N3CCN(CC4=C(c5ccc(Cl)cc5)CC(C)(C)CC4)CC3)cc2Oc2cnc3[nH]ccc3c2)cc([N+](=O)[O-])c1NCC1CCOCC1` [Example 80, 2-Chloro-N-[4-[4-[[2-(4-chlorophenyl)-4,4-dimethylcyclohexen-1-yl]methyl]piperazin-1-yl]-2-(1H-pyrrolo[2,3-b]pyridin-5-yloxy)phenyl]sulfonyl-3-methyl-5-nitro-4-(oxan-4-ylmethylamino)benzamide] gave an IC50 of less than 10 nM.
`Cc1c(Cl)c(C(=O)NS(=O)(=O)c2ccc(N3CCN(CC4=C(c5ccc(Cl)cc5)CC(C)(C)CC4)CC3)cc2Oc2cnc3[nH]ccc3c2)cc([N+](=O)[O-])c1OCC1CCOCC1` [Example 81, 2-Chloro-N-[4-[4-[[2-(4-chlorophenyl)-4,4-dimethylcyclohexen-1-yl]methyl]piperazin-1-yl]-2-(1H-pyrrolo[2,3-b]pyridin-5-yloxy)phenyl]sulfonyl-3-methyl-5-nitro-4-(oxan-4-ylmethoxy)benzamide] showed an IC50 of less than 10 nM.
With `CC1(C)CCC(CN2CCN(c3ccc(S(=O)(=O)NC(=O)c4ccc(COc5ccc(Cl)cc5)c([N+](=O)[O-])c4)c(Oc4cnc5[nH]ccc5c4)c3)CC2)=C(c2ccc(Cl)cc2)C1` [Example 82] the IC50 was less than 10 nM.
`CC1(C)CCC(CN2CCN(c3ccc(S(=O)(=O)NC(=O)c4ccc(COc5ccc(Cl)cc5)c(F)c4)c(Oc4cnc5[nH]ccc5c4)c3)CC2)=C(c2ccc(Cl)cc2)C1` [Example 83, 4-[(4-Chlorophenoxy)methyl]-N-[4-[4-[[2-(4-chlorophenyl)-4,4-dimethylcyclohexen-1-yl]methyl]piperazin-1-yl]-2-(1H-pyrrolo[2,3-b]pyridin-5-yloxy)phenyl]sulfonyl-3-fluorobenzamide] gave an IC50 of 10 to 100 nM.
`COCc1cc(C(=O)NS(=O)(=O)c2ccc(N3CCN(CC4=C(c5ccc(Cl)cc5)CC(C)(C)CC4)CC3)cc2Oc2cnc3[nH]ccc3c2)cc([N+](=O)[O-])c1` [Example 85, N-[4-[4-[[2-(4-chlorophenyl)-4,4-dimethylcyclohexen-1-yl]methyl]piperazin-1-yl]-2-(1H-pyrrolo[2,3-b]pyridin-5-yloxy)phenyl]sulfonyl-3-(methoxymethyl)-5-nitrobenzamide] gave an IC50 of 10 to 100 nM.
